# Experimental data taken from publication PMC10203128, “Structures of human SGLT in the occluded state reveal conformational changes during sugar transport” (Nature Communications, 2023).
# Assays:
# hSGLT2 = molecular target: T1, hSGLT2 (Homo sapiens, UniProt P31639); experiment: cryo-EM structure of the complex at […] Å ([…] AMG); format: binding
# T1 construct: gene SLC5A2; hSGLT2GFP-MAP17nb, in lipid nanodisc; with MAP17
# T1 sequence (P31639 1-672): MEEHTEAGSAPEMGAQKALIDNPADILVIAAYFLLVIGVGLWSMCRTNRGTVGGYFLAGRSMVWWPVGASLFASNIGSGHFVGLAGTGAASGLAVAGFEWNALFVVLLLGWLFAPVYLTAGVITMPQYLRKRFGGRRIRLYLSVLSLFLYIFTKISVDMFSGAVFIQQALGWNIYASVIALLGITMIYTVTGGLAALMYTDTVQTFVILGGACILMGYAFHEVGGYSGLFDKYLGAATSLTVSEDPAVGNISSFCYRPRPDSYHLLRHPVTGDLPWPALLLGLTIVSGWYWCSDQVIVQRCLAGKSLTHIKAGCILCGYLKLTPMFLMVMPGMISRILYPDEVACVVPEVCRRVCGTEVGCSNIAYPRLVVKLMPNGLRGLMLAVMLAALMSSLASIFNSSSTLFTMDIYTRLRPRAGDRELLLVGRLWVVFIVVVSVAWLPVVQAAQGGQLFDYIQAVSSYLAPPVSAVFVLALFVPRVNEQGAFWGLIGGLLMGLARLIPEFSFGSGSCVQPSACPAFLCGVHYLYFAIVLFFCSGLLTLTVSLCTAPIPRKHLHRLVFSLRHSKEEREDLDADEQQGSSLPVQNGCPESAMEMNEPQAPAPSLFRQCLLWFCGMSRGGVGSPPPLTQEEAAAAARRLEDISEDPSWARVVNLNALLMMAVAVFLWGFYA
# T1 sequence (Q13113 1-114 partner): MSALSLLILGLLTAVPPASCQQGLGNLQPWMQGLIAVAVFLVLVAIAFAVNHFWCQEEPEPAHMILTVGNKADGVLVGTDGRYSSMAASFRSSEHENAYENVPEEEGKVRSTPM
# hSGLT1 = molecular target: T2, hSGLT1 (Homo sapiens, UniProt P13866); experiment: cryo-EM structure of the complex at […] Å; IC50 from inhibition of […]-NBD-glucose uptake in cells; format: cell-based
# T2 construct: gene SLC5A1; hSGLT1GFP-MAP17nb (three-joint-tethering construct), in lipid nanodisc; with MAP17
# T2 sequence (P13866 1-664): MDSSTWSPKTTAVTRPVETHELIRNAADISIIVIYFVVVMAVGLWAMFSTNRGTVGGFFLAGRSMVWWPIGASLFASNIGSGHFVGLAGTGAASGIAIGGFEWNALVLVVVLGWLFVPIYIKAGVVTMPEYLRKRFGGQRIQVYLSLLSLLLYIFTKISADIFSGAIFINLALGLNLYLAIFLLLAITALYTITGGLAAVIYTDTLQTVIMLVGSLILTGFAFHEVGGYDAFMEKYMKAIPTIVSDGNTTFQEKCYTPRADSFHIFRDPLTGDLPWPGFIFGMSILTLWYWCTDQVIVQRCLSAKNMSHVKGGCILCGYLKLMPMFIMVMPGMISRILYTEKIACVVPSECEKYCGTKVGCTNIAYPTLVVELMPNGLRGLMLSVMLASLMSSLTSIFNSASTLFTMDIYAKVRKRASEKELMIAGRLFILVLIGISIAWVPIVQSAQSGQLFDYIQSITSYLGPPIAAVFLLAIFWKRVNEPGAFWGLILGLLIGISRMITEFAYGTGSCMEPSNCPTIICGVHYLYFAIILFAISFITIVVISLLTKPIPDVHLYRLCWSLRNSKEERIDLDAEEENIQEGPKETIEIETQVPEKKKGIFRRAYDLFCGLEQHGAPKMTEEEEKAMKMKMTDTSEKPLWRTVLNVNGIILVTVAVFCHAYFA
# T2 sequence (Q13113 1-114 partner): T1 sequence (Q13113 1-114 partner)
IC50 (hSGLT1) [µM],Structure (SMILES),cryo-EM structure of the complex at 3.33 Å (100 mM AMG) (hSGLT2)
,"CO[C@H]1O[C@H](CO)C(O)[C@H](O)[C@H]1O (stereo in doubt) [AMG, methyl alpha-D-galactopyranoside]",We observed that AMG is bound in an occluded substrate-binding site
~70,"OC[C@H]1OC(O)[C@H](O)[C@@H](O)[C@@H]1F (stereo partly drawn) [4D4FDG, 4-deoxy-4-fluoro-D-glucose]",
